Test results taken from patent publication US20090264664A1, “PREPARATION FOR EXTERNAL APPLICATION COMPRISING SALT OF MAST CELL DEGRANULATION INHIBITOR HAVING CARBOXYL GROUP WITH ORGANIC AMINE” (MEDRX CO., LTD., priority 2005, published 2009).

Assay: Solubility of tranilast in various solvents with or without triisopropanolamine (Example 3)
Assay type: physicochemical
Design: key: ∘: complete dissolution of tranilast; x: no dissolution of tranilast
Details: tranilast 1 wt %
Method: For preparation of test solutions (blending corresponding to 1 mol of triisopropanolamine), tranilast (1 wt %) and triisopropanolamine (0.56 wt %) were added, and glycerol, propylene glycol, butylene glycol, salicylic acid ethylene glycol, diethyl sebacate and isopropyl myristate were used as a balance to achieve 100 wt %, whereby each test solution was prepared.
For preparation of comparison control (without triisopropanolamine), tranilast (1 wt %) was added, and propylene glycol, salicylic acid ethylene glycol, diethyl sebacate and isopropyl myristate were used as a balance to achieve 100 wt %, whereby each test solution was prepared.
Using the test solutions and comparative controls prepared above, the solubility of tranilast in various solvents with or without triisopropanolamine was examined.

SMILES: CC(O)CN(CC(C)O)CC(C)O.COc1ccc(/C=C/C(=O)Nc2ccccc2C(=O)O)cc1OC [1:1 salt with triisopropanolamine]
- solubility of tranilast in solvent (butylene glycol): ∘
- solubility of tranilast in solvent (diethyl sebacate): ∘
- solubility of tranilast in solvent (glycerol): ∘
- solubility of tranilast in solvent (isopropyl myristate): x
- solubility of tranilast in solvent (propylene glycol): ∘
- solubility of tranilast in solvent (salicyl acid ethylene glycol): ∘
